# From patent US20180147171A1, “TRANS10:CIS12 ISOMER OF CONJUGATED LINOLEIC ACID AS A THERAPEUTIC AND PREVENTATIVE AGENT FOR HYPERTENSION SPECIFIC TO PREGNANCY” (Wisconsin Alumni Research Foundation, priority 2012, published 2018)
# Assays:
# [1] = test system: ovine uterine artery endothelial cells from pregnant sheep (P-UAEC); assay: Fura-2 [Ca2+]i imaging: ATP stimulated Ca2+ burst number after VEGF pretreatment, with or without rescue agent; type: cell-based; details: for CLA rescue of VEGF inhibitory effects on subsequent ATP burst number: t10:c12 CLA 50 uM added before VEGF165 10 ng/ml, compared with PP2 10 uM; for CLA rescue of VEGF inhibitory effects on subsequent ATP burst number / rescue from VEGF165 mediated inhibition of subsequent ATP stimulated Ca2+ bursts: 30 min; for rescue from VEGF165 mediated inhibition of subsequent ATP stimulated Ca2+ bursts: rescue agent 10 uM added right before VEGF165 10 ng/ml, second ATP 100 uM response as % of first
# From the text: Studies in ovine uterine artery endothelial cells from pregnant sheep (P-UAEC). P-UAEC are a well-established cell model of endothelial cells isolated from uterine arteries and maintained in culture to passage 3 before freezing for future use.
# Isolation of UAECs: Uterine arteries were obtained from Polypay and mixed Western breed nonpregnant sheep (n=4) and pregnant ewes (n=6) at 120-130 days of gestation during nonsurvival surgery, as described in the art. Procedures for animal handling and protocols for experimental procedures were approved by the University of Wisconsin-Madison Research Animal Care Committees of both the School of Medicine and Public Health and the College of Agriculture and Life Sciences and follow the recommended American Veterinary Medicine Association guidelines for humane treatment and euthanasia of laboratory farm animals.
# Fura-2 [Ca^2+]i Imaging Studies: Uterine artery endothelial cells plated to 35-mm dishes with glass coverslip windows (MatTek Corp.) were grown to the required density (20%-100%, as described) and then loaded with 5 μM Fura-2 AM in Krebs buffer (125 mM NaCl, 5 mM KCl, 1 mM MgSO4, 1 mM KH2PO4, 6 mM glucose, 2 mM CaCl2, and 25 mM HEPES, pH 7.4) for 45 min. After rinsing and incubating a further 30 min to complete ester hydrolysis, Fura-2 loading was verified by viewing at 380-nm ultraviolet excitation on a Nikon inverted microscope (TS100; Melville, N.Y.). About 60 cells were then preselected and video recordings commenced using alternate excitation at 340 and 380 nm at 1-sec intervals and measuring emitted light using a digital camera. From the ratio of emission at 510 nm detected at the two excitation wavelengths, and by comparison to a standard curve established for the same settings using buffers of known free Ca^2+ concentration, the [Ca^2+]i was then calculated for individual cells in real time using InCyt Im2 software (Intracellular Imaging Inc., Cincinnati, Ohio).
# Data in graphs is calculated comparing the cells repeated burst patterns before and after repeat treatment. ATP 100 μM 30 min followed by ATP 100 uM 30 min gives a marginal decline in number of Ca^2+ bursts (as defined in the art). However other agents activating protein kinases such as ERK and Src cause closure of CX43 and so loss of associated bursts. Therefore to perform the analysis, ATP stimulation is performed once to establish an uninhibited response for each cell. Then the inhibitory treatment under study is given (VEGF, 10 ng/ml or equivalent). After 30 minutes the second ATP treatment begins and burst response is expressed as % of the first ATP response. To then further test the protective or rescue effect of kinase inhibitors we follow the same protocol but add the rescue agent right before the VEGF. U0126 is an MEK/ERK pathway blocked, PP2 is a Src pathway blocker, and CLA is the test compound.
# CX43 = assay: Phosphorylation of CX43 at specific inhibitory sites in VEGF-treated uterine artery endothelial cells; type: cell-based, sheep; details: cultured uterine artery endothelial cells from pregnant animals, VEGF inhibited, with rescue agent
# ERK and Src signaling = details: cancer cells; earlier finding; cited from earlier work
Molecule,CLA rescue of VEGF inhibitory effects on subsequent ATP burst number ([1]; FIG. 4),phosphorylation of CX43 at specific inhibitory sites (CX43),rescue from VEGF165 mediated inhibition of subsequent ATP stimulated Ca2+ bursts ([1]; FIG. 3),further results
CCCCCC/C=C/C=C\CCCCCCCC(=O)O [c9:t11 CLA],have not achieved rescue,,,
CC(C)(C)n1nc(-c2ccc(Cl)cc2)c2c(N)ncnc21 [PP2],,reversal of the phosphorylation of CX43,can rescue the cells,
N#CC(=C(/N)Sc1ccccc1N)/C(C#N)=C(\N)Sc1ccccc1N [U0126],,reversal of the phosphorylation of CX43,can rescue the cells,
"CCCCC/C=C\C=C\CCCCCCCCC(=O)O [t10:c12 CLA, t10:c12 conjugated linoleic acid]",can achieve the same rescue effect as PP2,,,"inhibition of ERK and Src kinase signaling pathways (ERK and Src signaling): can inhibit these pathways; CLA rescue of VEGF inhibitory effects on subsequent ATP burst number ([1]; FIG. 4, listed as CLA): improvement of function beyond rescue"
VEGF,,,,"effect of factor pretreatment on subsequent ATP stimulated Ca2+ bursts ([1]; 30 min pretreatment, 10 ng/ml, FIG. 3): inhibitory effects"
